Laboratory results as given in ChEMBL document CHEMBL5500393, “Discovery and Optimization of Novel SaFabI Inhibitors as Specific Therapeutic Agents for MRSA Infection” (J Med Chem, 2024).
Converted amounts (≈) assume the structure as drawn. The source made the active and inactive calls. The rule behind the calls is not given here.

What was measured:
[1] = target: T1, Enoyl-[acyl-carrier-protein] reductase [NADPH] FabI (Staphylococcus aureus) (UniProt Q6GI75); experiment: Inhibition of N-terminal his 6 tagged Staphylococcus aureus Fabi (1 to […] residues) expressed in Escherichia coli BL21 at 1 uM incubated for 30 mins in presence of NADPH by fluorescence based microplate reader analysis relative to control
T1 sequence (whole entry): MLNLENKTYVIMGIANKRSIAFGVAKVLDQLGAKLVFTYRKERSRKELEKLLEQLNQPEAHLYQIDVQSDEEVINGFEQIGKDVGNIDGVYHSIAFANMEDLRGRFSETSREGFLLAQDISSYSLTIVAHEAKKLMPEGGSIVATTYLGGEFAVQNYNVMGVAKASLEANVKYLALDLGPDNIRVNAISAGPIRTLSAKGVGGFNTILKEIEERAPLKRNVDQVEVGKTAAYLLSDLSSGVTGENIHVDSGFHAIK

[2] = target: T2, Enoyl-[acyl-carrier-protein] reductase [NADPH] FabI (Staphylococcus aureus, UniProt Q6GI75); experiment: Inhibition of N-terminal his 6 tagged Staphylococcus aureus Fabi (1 to […] residues) expressed in Escherichia coli BL21 incubated for 30 mins in presence of NADPH by fluorescence based microplate reader analysis
T2 sequence (Q6GI75 whole entry): T1 sequence (whole entry)

[3] = Inhibition of N-terminal his 6 tagged Escherichia coli Fabi (1 to 789 residues) expressed in Escherichia coli BL21 incubated for 30 mins in presence of NADH by fluorescence based microplate reader analysis
[4] = Inhibition of N-terminal his 6 tagged Acinetobacter baumannii Fabi (1 to 804 residues) expressed in Escherichia coli BL21 incubated for 30 mins in presence of NADH by fluorescence based microplate reader analysis
Staphylococcus aureus [5] = experiment: Antimicrobial activity against […] Staphylococcus aureus ATCC33591 measured after 24 hrs by CLSI protocol based microdilution method; assay type: functional
Pseudomonas aeruginosa = experiment: Antimicrobial activity against Pseudomonas aeruginosa PAO1 measured after 24 hrs by CLSI protocol based microdilution method; assay type: functional
Candida albicans = experiment: Antimicrobial activity against Candida albicans SC5314 measured after 48 hrs by CLSI protocol based microdilution method; assay type: functional
[6] = Cytotoxicity against HEK293 cells assessed as survival rate at 800 uM measured after 48 hrs by CCK-8 method relative to control; assay type: toxicity, cell-based; conditions: human, read-out: Survival
[7] = Hemolytic activity in sheep erythrocytes assessed as hemolysis at 128 ug/ml incubated for 1 hr by microplate reader based analysis relative to control; assay type: toxicity, cell-based, Ovis aries, Erythrocyte; conditions: at 128 µg/mL, read-out: Activity
[8] = Hemolytic activity in sheep erythrocytes assessed as hemolysis incubated for 1 hr by microplate reader based analysis; assay type: toxicity, cell-based, Ovis aries, Erythrocyte
Staphylococcus aureus [9] = experiment: Antimicrobial activity against Staphylococcus aureus measured after 24 hrs by CLSI protocol based microdilution method; assay type: functional
[10] = Selectivity index, ratio of HC50 for sheep erythrocytes to MIC for Staphylococcus aureus; assay type: toxicity; conditions: read-out: Selectivity Index
Staphylococcus aureus [11] = experiment: Bactericidal activity against […] Staphylococcus aureus ATCC33591 measured upto 24 hr by time-kill assay; assay type: functional, organism-based
Staphylococcus aureus [12] = experiment: Bactericidal activity against […] Staphylococcus aureus ATCC33591 assessed as log reduction in bacterial count at 2 times MIC measured within 8 to 12 hrs by time-kill assay; assay type: functional; conditions: time 8-12 hrs
Staphylococcus aureus [13] = experiment: Bactericidal activity against […] Staphylococcus aureus ATCC33591 assessed as reduction in bacterial count at 4 times MIC measured within 24 hrs by time-kill assay; assay type: functional, organism-based
Cell membrane [14] = experiment: Induction of cell membrane permeability in methicillin-resistant Staphylococcus aureus ATCC33591 assessed as fold increase in fluorescence intensity at 0.5 times MIC measured after 30 mins by Annexin V-FITC staining based analysis; assay type: cell membranes
Cell membrane [15] = experiment: Induction of cell membrane permeability in methicillin-resistant Staphylococcus aureus ATCC33591 assessed as fold increase in fluorescence intensity at 1 times MIC measured after 30 mins by Annexin V-FITC staining based analysis; assay type: cell membranes
Cell membrane [16] = experiment: Induction of cell membrane damage in methicillin-resistant Staphylococcus aureus ATCC33591 assessed as appearance of inward wrinkling in cell surface at 1 times MIC measured after 30 mins by TEM analysis; assay type: cell membranes
Staphylococcus aureus [17] = experiment: Antimicrobial activity against wild type Staphylococcus aureus RN4220 measured after 24 hrs by CLSI protocol based microdilution method; assay type: functional
[18] = Acute toxicity in female BALB/c mouse assessed as animal death at 800 mg/kg, po measured after 14 days; assay type: organism-based; conditions: in vivo, 336 h, time 14 day
[19] = Acute toxicity in female BALB/c mouse assessed as effect on ALB level in serum at 800 mg/kg, po measured after 14 days; assay type: organism-based; conditions: in vivo, 336 h, time 14 day
[20] = Acute toxicity in female BALB/c mouse assessed as effect on ALT level in serum at 800 mg/kg, po measured after 14 days; assay type: organism-based; conditions: in vivo, 336 h, time 14 day
[21] = Acute toxicity in female BALB/c mouse assessed as effect on AST level in serum at 800 mg/kg, po measured after 14 days; assay type: organism-based; conditions: in vivo, 336 h, time 14 day
[22] = Acute toxicity in female BALB/c mouse assessed as effect on TP level in serum at 800 mg/kg, po measured after 14 days; assay type: organism-based; conditions: in vivo, 336 h, time 14 day
[23] = Acute toxicity in female BALB/c mouse assessed as effect on UREA level in serum at 800 mg/kg, po measured after 14 days; assay type: organism-based; conditions: in vivo, 336 h, time 14 day
[24] = Acute toxicity in female BALB/c mouse assessed as effect on heart at 800 mg/kg, po measured after 14 days by H and E staining based analysis; assay type: organism-based; conditions: in vivo, 336 h, time 14 day
[25] = Acute toxicity in female BALB/c mouse assessed as effect on kidney at 800 mg/kg, po measured after 14 days by H and E staining based analysis; assay type: organism-based; conditions: in vivo, 336 h, time 14 day
[26] = Drug concentration in BALB/c mouse plasma at 800 mg/kg, po measured after 1 hr by LC-MS analysis; assay type: ADME, organism-based
[27] = Drug concentration in BALB/c mouse plasma at 1200 mg/kg, po measured after 1 hr by LC-MS analysis; assay type: ADME, organism-based
[28] = Metabolic stability in human liver microsomes assessed as intrinsic clearance at 1 uM measured upto 120 mins in presence of NADPH by LC-MS analysis; assay type: ADME, Microsome; conditions: read-out: CLH
[29] = Metabolic stability in mouse liver microsomes assessed as intrinsic clearance at 1 uM measured upto 120 mins in presence of NADPH by LC-MS analysis; assay type: ADME, Microsome; conditions: read-out: CLH
[30] = Cmax in female Sprague-Dawley rat at 20 mg/kg, po measured upto 24 hrs by LC-MS analysis; assay type: ADME, organism-based; conditions: in vivo
[31] = Half life in female Sprague-Dawley rat at 20 mg/kg, po measured upto 24 hrs by LC-MS analysis; assay type: ADME, organism-based; conditions: in vivo
[32] = Clearance in female Sprague-Dawley rat at 20 mg/kg, po measured upto 24 hrs by LC-MS analysis; assay type: ADME, organism-based; conditions: in vivo
[33] = AUC (0 to t) in female Sprague-Dawley rat at 20 mg/kg, po measured upto 24 hrs by LC-MS analysis; assay type: ADME, organism-based; conditions: in vivo
[34] = Oral bioavailability in female Sprague-Dawley rat at 20 mg/kg measured upto 24 hrs by LC-MS analysis; assay type: ADME, organism-based; conditions: in vivo

## Cc1c(Br)cccc1N1CC(c2nc3ccccc3n2C)CC1=O (configuration not stated)
[1]
  inhibition: 88.9%
[2]
  IC50: 174 nM
[3]
  IC50: 35.9 nM
[4]
  IC50: 266 nM
Staphylococcus aureus [5]
  MIC: 1 µg/mL (≈ 2.6 µM)
Pseudomonas aeruginosa
  MIC: > 32 µg/mL
Candida albicans
  MIC: > 32 µg/mL
[6]
  viability at 48 h, 800 µM: > 75%
[7]
  hemolysis at 1 h, 128 ug/ml: 5%
[8]
  HC50 at 1 h: > 256 µg/mL
Staphylococcus aureus [9]
  MIC: 1 µg/mL (≈ 2.6 µM)
[10]
  selectivity ratio: > 128
Staphylococcus aureus [11]
  Activity: Dose-Dependent Effect
Staphylococcus aureus [12]
  log(activity): 3.2
Staphylococcus aureus [13]
  Activity: Below limit of detection
Cell membrane [14]
  fold change (FC): 2.1
Cell membrane [15]
  fold change (FC): 2.6
Cell membrane [16]
  Activity: Active
Staphylococcus aureus [17]
  MIC: 2 µg/mL (≈ 5.2 µM)
[18]
  Activity: Non-Toxic
[19]
  Activity: Non-Toxic
[20]
  Activity: Non-Toxic
[21]
  Activity: Non-Toxic
[22]
  Activity: Non-Toxic
[23]
  Activity: Non-Toxic
[24]
  Activity: Non-Toxic
[25]
  Activity: Non-Toxic
[26]
  concentration at 1 h: 53600 ng/mL
[27]
  concentration at 1 h: 72100 ng/mL
[28]
  CLint scaled at 1 µM: 27.3 mL/min/kg
[29]
  CLint scaled at 1 µM: 197 mL/min/kg
[30]
  Cmax: 1520 ng/mL
[31]
  t1/2: 8.7 h
[32]
  CL/F: 26.7 mL/min/kg
[33]
  AUCt: 11149.1 ng·h/mL
[34]
  bioavailability: 86.1%

## COc1c(Br)cccc1N1CC(c2nc3ccccc3n2C)CC1=O (configuration not stated)
[1]
  inhibition: 89.6%
[2]
  IC50: 199 nM
[3]
  IC50: 35.9 nM
[4]
  IC50: 266 nM
Staphylococcus aureus [5]
  MIC: 1 µg/mL (≈ 2.5 µM)
Pseudomonas aeruginosa
  MIC: > 32 µg/mL
Candida albicans
  MIC: > 32 µg/mL
[6]
  viability at 48 h, 800 µM: > 65%
[7]
  hemolysis at 1 h, 128 ug/ml: 3.4%
[8]
  HC50 at 1 h: > 256 µg/mL
Staphylococcus aureus [9]
  MIC: 1 µg/mL (≈ 2.5 µM)
[10]
  selectivity ratio: > 128
Staphylococcus aureus [11]
  Activity: Dose-Dependent Effect
Staphylococcus aureus [12]
  log(activity): 2.3
Staphylococcus aureus [13]
  Activity: Below limit of detection
Cell membrane [14]
  fold change (FC): 1.9
Cell membrane [15]
  fold change (FC): 2.4
Cell membrane [16]
  Activity: Active
Staphylococcus aureus [17]
  MIC: 2 µg/mL (≈ 5 µM)
[18]
  Activity: Non-Toxic
[19]
  Activity: Non-Toxic
[20]
  Activity: Non-Toxic
[21]
  Activity: Non-Toxic
[22]
  Activity: Non-Toxic
[23]
  Activity: Non-Toxic
[24]
  Activity: Non-Toxic
[25]
  Activity: Non-Toxic
[26]
  concentration at 1 h: 32700 ng/mL
[27]
  concentration at 1 h: 46500 ng/mL
[28]
  CLint scaled at 1 µM: 45.4 mL/min/kg
[29]
  CLint scaled at 1 µM: 414 mL/min/kg
[30]
  Cmax: 1270 ng/mL
[31]
  t1/2: 9.3 h
[32]
  CL/F: 86.7 mL/min/kg
[33]
  AUCt: 3127 ng·h/mL
[34]
  bioavailability: 34.5%
